Results published in article PMC7619385 (ACS infectious diseases, 2025).
Read-outs that look alike come from different tables or passages of the source.

Legend:
[1] = tested on: L. mexicana promastigotes; assay: Promastigote viability (Alamar Blue/resazurin); assay type: cell-based; conditions: Leishmania mexicana
Procedure: Next, we evaluated GZD824 ability to reduce the viability of L. mexicana promastigotes by monitoring the reduction of resazurin (Alamar Blue).[31]
L. mexicana (strain MNYC/BZ/62/M379) promastigotes were cultivated in medium 199 (M199) (Earle’s Salts - Gibco) supplemented with 10% (v/v) heat-inactivated fetal calf serum (HIFCS – Cultilab) and 1% Penicillin/Streptomycin solution (Sigma-Aldrich) at 26 °C. Phenotypic drug response assays in null mutant and point-mutation mutant lines were performed in HOMEM supplemented with 10% (v/v) heat-inactivated fetal calf serum (HIFCS – Gibco). THP-1 monocytes were differentiated in adherent macrophages with 50 ng of PMA for 72 h at 37 °C and 5% CO2 before infection with stationary phase promastigotes (ratio 10 promastigotes:1 macrophage) for 6 h, followed by washing to remove non-internalized Leishmania. Infected macrophages were incubated at 34 °C and 5% CO2 for 48 h in RPMI (Gibco) supplemented with 10% HIFCS and 1% Penicillin/Streptomycin solution.
For evaluation of drug effect on promastigote and uninfected macrophage viability, cells were cultivated in the presence of test compounds for 24 h and incubated with 10% AlamarBlue™ Cell Viability Reagent (ThermoFisher) for 24 h before measuring fluorescence at λex 540 nm/λem 590 nm. Untreated cells (1% DMSO) were set as 100 % viable cells. Intracellular amastigotes were treated with compounds for 48 h. Slides with paraformaldehyde-fixed and DAPI-stained cells were imaged on a Zeiss AxioImager microscope – at least 200 macrophages per drug concentration and DMSO control. Experiments were performed in duplicate. The total number of amastigotes was normalized by the number of macrophages counted. For EC50 determination, the data was fitted to the sigmoidal dose-response (variable slope) equation in GraphPad Prism (v.9.1.0).

[2] = tested on: L. mexicana T7/Cas9 Δclk1, Δclk2 and Cys172Ala LmxCLK1 lines; assay: Viability of T7/Cas9 null mutant and cysteine point-mutant lines; assay type: cell-based, Leishmania mexicana; conditions: 96 h, versus parental T7/Cas9 line
Text: Data represent mean ± SD of four independent experiments performed in triplicate. […] Data represent mean ± SD of two independent experiments performed in duplicate. […] Data represent mean ± SD of two independent experiments performed in triplicate. […] Values are mean ± SEM.

[3] = tested on: L. mexicana intracellular amastigotes; assay: Intracellular amastigote viability in THP-1 macrophages (DAPI counting); assay type: cell-based; conditions: Leishmania mexicana, macrophage-internalized amastigotes, 48 h
Procedure: L. mexicana (strain MNYC/BZ/62/M379) promastigotes were cultivated in medium 199 (M199) (Earle’s Salts - Gibco) supplemented with 10% (v/v) heat-inactivated fetal calf serum (HIFCS – Cultilab) and 1% Penicillin/Streptomycin solution (Sigma-Aldrich) at 26 °C. […] THP-1 monocytes were differentiated in adherent macrophages with 50 ng of PMA for 72 h at 37 °C and 5% CO2 before infection with stationary phase promastigotes (ratio 10 promastigotes:1 macrophage) for 6 h, followed by washing to remove non-internalized Leishmania. Infected macrophages were incubated at 34 °C and 5% CO2 for 48 h in RPMI (Gibco) supplemented with 10% HIFCS and 1% Penicillin/Streptomycin solution.

[4] = tested on: THP-1-derived macrophages; conditions: human, 24 h, 100 µM
Procedure: For evaluation of drug effect on promastigote and uninfected macrophage viability, cells were cultivated in the presence of test compounds for 24 h and incubated with 10% AlamarBlue™ Cell Viability Reagent (ThermoFisher) for 24 h before measuring fluorescence at λex 540 nm/λem 590 nm. Untreated cells (1% DMSO) were set as 100 % viable cells. […] Experiments were performed in duplicate.

[5] = tested on: LmxCLK1-overexpressing L. mexicana; assay: microbe, parasite or virus in culture; assay type: cell-based, Leishmania mexicana
[6] = tested on: T790M mutant form of EGFR; conditions: cited from earlier work
[7] = 48 h compound exposure, read-out: EC50 promastigote viability

SMILES | EC50 [1, 7] | Sensitivity of Δclk1 line [2] | EC50 [3] | Reduction in macrophage viability [4] | EC50 ([5]; Leishmania mexicana, read-out: EC50 LmxCLK1-overexpressing parasites) | Reduction of parasite sensitivity by LmxCLK1 overexpression ([5]; compared to wild-type parasites) | EC50 ([1]; wild-type comparator of the overexpression experiment (Figure 6D), read-out: EC50 wild-type parasites) | Selectivity for T790M mutant EGFR compared to wild-type enzyme [6]
Cc1ccc(C(=O)Nc2ccc(CN3CCN(C)CC3)c(C(F)(F)F)c2)cc1C#Cc1cnc2[nH]ncc2c1 [GZD824] | 33 µM | – | – | – | – | – | – | –
C=CC(=O)Nc1cccc(Sc2nc(Nc3ccc(N4CCN(C)CC4)cc3)ncc2Cl)c1 [WZ8040] | 7.9 µM | significantly enhanced sensitivity | 2.1 µM | ~ 15% | 17.6 µM | approximately 3 fold | 5.6 µM | over 10 fold
